Experimental data from patent publication US10336723B2, “Inhibitors of TrkA kinase” (GVK BIOSCIENCES PRIVATE LIMITED, priority 2015, dated 2019).

Target: T1, human TrkA (Homo sapiens, UniProt P04629)
T1 construct: expressed in transfected cells; host or cells: AD293 cells
Experiment: TrkA Cell Based Phosphorylation Assay
Conditions: Recombinant AD293 cells overexpressing human TrkA; TrkA Y490 phosphorylation upon 6 nM NGF stimulation; Phospho-TrkA (Tyr490) sandwich ELISA
Experimental: Recombinant AD293 cells overexpressing human TrkA were used to determine TrkA Y490 phosphorylation upon NGF stimulation. 25 k cells plated in serum free DMEM medium in a 96 well plate were serum starved for 2 hours at 37° C. in 5% CO2 incubator. Test compounds were added to the plate at a final concentration of 2.5% DMSO and incubated for 20 min at 37° C. 6 nM NGF was added and incubated for 5 min at 37° C. The plate was immediately centrifuged at 2000 rpm for 1 min and media removed. Lysis buffer containing 1% NP-40 Substitute, 20 mM Tris (pH 8.0), 137 mM NaCl final concentrations was added, mixed for one minute and kept on ice for 15 min with shaking every 5 minutes. 100 ul of the cell lysate was added to the PathScan® Phospho-TrkA (Tyr490) Sandwich ELISA plate with precoated wells and ELISA performed according to the manufacturer's instructions for color development. IC50 was generated in Graph Pad Prism software in non linear regression format.

T1 sequence (P04629 33-796): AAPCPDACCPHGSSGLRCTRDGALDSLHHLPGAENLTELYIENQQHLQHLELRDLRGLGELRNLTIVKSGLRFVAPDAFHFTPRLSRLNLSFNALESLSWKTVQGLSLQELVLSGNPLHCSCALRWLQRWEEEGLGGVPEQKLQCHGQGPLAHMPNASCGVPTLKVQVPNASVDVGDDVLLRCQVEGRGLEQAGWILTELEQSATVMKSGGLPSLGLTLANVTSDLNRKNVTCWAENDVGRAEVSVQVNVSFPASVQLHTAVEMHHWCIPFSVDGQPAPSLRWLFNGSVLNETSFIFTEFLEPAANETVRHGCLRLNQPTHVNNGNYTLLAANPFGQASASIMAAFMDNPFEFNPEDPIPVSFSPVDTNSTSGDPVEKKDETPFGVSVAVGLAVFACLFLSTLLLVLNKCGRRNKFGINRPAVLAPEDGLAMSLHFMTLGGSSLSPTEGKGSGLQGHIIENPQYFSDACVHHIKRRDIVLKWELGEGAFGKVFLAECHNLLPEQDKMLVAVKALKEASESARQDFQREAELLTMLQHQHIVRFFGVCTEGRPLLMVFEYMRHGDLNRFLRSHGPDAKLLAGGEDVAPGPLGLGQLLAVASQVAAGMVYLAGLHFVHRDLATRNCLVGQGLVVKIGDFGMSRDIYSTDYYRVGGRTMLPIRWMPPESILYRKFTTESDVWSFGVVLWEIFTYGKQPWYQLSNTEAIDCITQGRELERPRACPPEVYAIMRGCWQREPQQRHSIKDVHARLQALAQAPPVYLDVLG

First: COCCN1C[C@@H](NC(=O)Nc2cc3ccccc3nc2-c2ccccc2)[C@H](c2ccccc2)C1 [Example 2, 1-((3S,4R)-1-(2-methoxyethyl)-4-phenylpyrrolidin-3-yl)-3-(2-phenylquinolin-3-yl)urea]
Second: COCCN1C[C@@H](NC(=O)Nc2cc3ccccc3nc2-c2ccncc2)[C@H](c2ccccc2)C1 [Example 33, 1-((3S,4R)-1-(2-Methoxyethyl)-4-phenylpyrrolidin-3-yl)-3-(2-(pyridin-4-yl)quinolin-3-yl)urea]
The IC50 of the first is lower: under 0.1 µM for the first, over 1 µM for the second. The first is the more potent here.

First: COCCN1C[C@@H](NC(=O)Nc2cc3c(OC)cccc3nc2-c2ccccc2)[C@H](c2ccccc2)C1 [Example 16, 1-(5-Methoxy-2-phenylquinolin-3-yl)-3-((3S,4R)-1-(2-methoxyethyl)-4-phenylpyrrolidin-3-yl)urea]
Second: COCCN1C[C@@H](NC(=O)Nc2c(-c3ccccc3)ncc3ccccc23)[C@H](c2ccccc2)C1 [Example 149, 1-((3S,4R)-1-(2-Methoxyethyl)-4-phenylpyrrolidin-3-yl)-3-(3-phenylisoquinolin-4-yl)urea]
The IC50 of the first is higher: 0.1 to 1 µM for the first, under 0.1 µM for the second.

First: COCCN1C[C@@H](NC(=O)Nc2cc3cc(OC)c(OC)cc3nc2-c2ccccc2)[C@H](c2cccc(F)c2)C1 [Example 74, 1-(6,7-Dimethoxy-2-phenylquinolin-3-yl)-3-((3S,4R)-4-(3-fluorophenyl)-1-(2-methoxyethyl)pyrrolidin-3-yl)urea]
Second: COCCN1C[C@@H](NC(=O)Nc2c(-c3ccccc3)nc(C(=O)O)c3cc(F)ccc23)[C@H](c2ccccc2)C1 [Example 190, 7-Fluoro-4-(3-(1-(2-methoxyethyl)-4-phenylpyrrolidin-3-yl)ureido)-3-phenylisoquinoline-1-carboxylic acid]
The IC50 of the first is lower: under 0.1 µM for the first, 0.1 to 1 µM for the second.

First: COCCN1C[C@@H](NC(=O)Nc2cccc3oc4ccccc4c23)[C@H](c2ccccc2)C1 [Example 104, 1-(Dibenzo[b,d]furan-1-yl)-3-((3S,4R)-1-(2-methoxyethyl)-4-phenylpyrrolidin-3-yl)urea]
Second: COCCN1C[C@@H](NC(=O)Nc2cc3c(nc2-c2ccccc2)CCCC3)[C@H](c2ccccc2)C1 [Example 125, 1-((3S,4R)-1-(2-Methoxyethyl)-4-phenylpyrrolidin-3-yl)-3-(2-phenyl-5,6,7,8-tetrahydroquinolin-3-yl)urea]
The IC50 of the first is higher: 0.1 to 1 µM for the first, under 0.1 µM for the second.

First: COCCN1C[C@@H](NC(=O)Nc2c(C(C)(C)C)nc(-c3cnn(C)c3)c3ccccc23)[C@H](c2ccccc2)C1 [Example 165, 1-(3-(tert-Butyl)-1-(1-methyl-1H-pyrazol-4-yl)isoquinolin-4-yl)-3-((3S,4R)-1-(2-methoxyethyl)-4-phenylpyrrolidin-3-yl)urea]
Second: COCCN1C[C@@H](NC(=O)Nc2c(-c3ccccc3)nc(N3CCOCC3)c3ccccc23)[C@H](c2ccccc2)C1 [Example 172, 1-((3S,4R)-1-(2-Methoxyethyl)-4-phenylpyrrolidin-3-yl)-3-(1-morpholino-3-phenylisoquinolin-4-yl)urea]
The IC50 of the first is higher: 0.1 to 1 µM for the first, under 0.1 µM for the second. The second is the more potent here.
